Results on one compound are retold here after US12262710B2, “Fungicidal compounds” (SYNGENTA CROP PROTECTION AG, priority 2019, dated 2025).

SMILES strings stand for the structures.

One test concerns Glomerella lagenarium. In words: Glomerella lagenarium syn. Colletotrichum lagenarium (anthracnose of cucurbits), liquid culture growth inhibition. The test is classed as cell-based. The settings on record: Colletotrichum orbiculare, nutrient broth (PDB), 72 hrs, photometric at 620 nm, compared to untreated control. Summed up: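 Conidia mixed into potato dextrose broth and added to compound in DMSO in 96-well format. Incubated at 24 °C; growth inhibition measured photometrically at 620 nm after 72 hrs.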

The subject of another test is Plasmopara viticola. In words: Plasmopara viticola (downy mildew of grapevine), grape vine leaf disks, preventive. In kind it is in vivo. The settings on record: foliar, 168 h, 7 dpi, compared to untreated control. As for the experimental part: Grape vine leaf disks are placed on agar in multiwell plates (24-well format) and sprayed with test solutions. After drying, the leaf disks are inoculated with a spore suspension of the fungus. After appropriate incubation the activity of a compound is assessed 7 dpi (days after inoculation) as preventive fungicidal activity.

The subject of a further test is Phytophthora infestans. As to the kind of experiment: whole plant or invertebrate. The test is classed as in vivo. As to conditions: in Solanum lycopersicum, foliar, 96 h, read-out: control of Phytophthora infestans.
The next test deals with Alternaria solani. In words: Alternaria solani (early blight of tomatoes), tomato leaf disks. The test is classed as in vivo. As to conditions: foliar, inoculated 2 days after application, compared to untreated control. As for the experimental part: Alternaria solani (Early Blight of Tomatoes) Tomato leaf disks are placed on agar in multiwell plates (24-well format) and sprayed with the formulated test compound diluted in water. The leaf disks are inoculated with a spore suspension of the fungus 2 days after application. The inoculated leaf disks are incubated at 23° C./21° C.

The subject of test [1] is Erysiphe graminis f. sp. tritici. In words: Erysiphe graminis f. sp. tritici (wheat powdery mildew), wheat leaf segments, preventive. As to conditions: Blumeria graminis, foliar, 168 h, 7 dpi, compared to untreated control. In kind it is in vivo. As for the experimental part:
Wheat leaf segments are placed on agar in multiwell plates (24-well format) and sprayed with test solutions. After drying, the leaf disks are inoculated with spores of the fungus. After appropriate incubation the activity of a compound is assessed 7 dpi (days post inoculation) as preventive fungicidal activity.

For test [2], the system named is Puccinia recondita f. sp. tritici. As to the kind of experiment: Puccinia recondita (brown rust), curative, wheat leaf segments. In kind it is in vivo. As to conditions: foliar, 192 h, sprayed 1 day after inoculation, 8 dpi, compared to untreated control. As for the experimental part:
Wheat leaf segments are placed on agar in multiwell plates (24-well format). The leaf segments are inoculated with a spore suspension of the fungus and sprayed with test solutions 1 day after inoculation. After appropriate incubation the activity of a compound is assessed 8 dpi (days after inoculation) as curative fungicidal activity.

The next test concerns Mycosphaerella arachidis. In words: Mycosphaerella arachidis syn. Cercospora arachidicola (brown leaf spot of peanut), liquid culture growth inhibition. The settings on record: nutrient broth (PDB), approximately 5-6 days, photometric at 620 nm, compared to untreated control. In kind it is cell-based. The procedure:
Conidia of the fungus from cryogenic storage were directly mixed into nutrient broth (PDB potato dextrose broth). A DMSO solution of the test compounds was placed into a microtiter plate (96-well format) and the nutrient broth containing the fungal spores was added to it. The test plates were incubated at 24° C. and the inhibition of growth was determined photometrically after approximately 5-6 […] at 620 nm.

For test [3], the system named is Phakopsora pachyrhizi. As to the kind of experiment: Example D: comparative activity against Phakopsora pachyrhizi (soybean rust), soybean plants sprayed, leaf disks cut from treated plants. The settings on record: 0.1% OCHIMA, leaf disks cut one day after application, approx. 12 dpi. The test is classed as in vivo. The procedure: Method: Soybean plants are sprayed in a spray chamber with formulated DMSO compound solutions which are diluted to the appropriate concentration with 0.1% […] (adjuvant comprising polyethoxylated sorbitol hexaoleate and tris(2-ethylhexyl) phosphate) just before spraying. Leaf disks are cut from treated plants and placed on agar into 24-well plates one day after application. After, the leaf disks are inoculated with a spore suspension of the fungus. After appropriate incubation the activity of a compound is assessed approx. 12 dpi (days after inoculation) as preventive fungicidal activity. The data are presented as the percentage of disease control of each compound for the biological tests and testing rates described below in Table 1.

Another test relates to Puccinia recondita. In words: Example C: comparative activity against Puccinia recondita (brown rust), curative, wheat leaf segments. The test is classed as in vivo. The settings on record: 8 dpi. The procedure:
Method; Wheat leaf segments are placed on agar in multiwell plates (24-well format). The leaf segments are inoculated with a spore suspension of the fungus and sprayed with test solutions 1 day after inoculation. After appropriate incubation the activity of a compound is assessed 8 dpi (days after inoculation) as curative fungicidal activity. The data are presented as the percentage of disease control of each compound for the biological tests and testing rates described below in table H.

Test [4] has as its system Phakopsora pachyrhizi. In words: Phakopsora pachyrhizi (soybean rust), soybean leaf disks, preventive. As to conditions: foliar, 288 h, approx. 12 dpi, compared to untreated control. In kind it is in vivo. The procedure: Soybean leaf disks are placed on agar in multiwell plates (24-well format) and sprayed with test solutions. After drying, the leaf disks are inoculated with a spore suspension of the fungus. After appropriate incubation the activity of a compound is assessed approx. 12 dpi (days after inoculation) as preventive fungicidal activity.

A further test has as its system Monographella nivalis. In words: Monographella nivalis syn. Microdochium nivale (snow mould, foot rot of cereals), liquid culture growth inhibition. In kind it is cell-based. As to conditions: nutrient broth (PDB), 72 hrs, photometric at 620 nm, compared to untreated control. Summed up:
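Cryostored conidia suspended in potato dextrose broth and added to test compounds in DMSO. Growth inhibition read photometrically at 620 nm after 72 h incubation at 24 °C.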

Test [5] deals with Phakopsora pachyrhizi. In words: Example E: comparative activity against Phakopsora pachyrhizi (soybean rust), soybean leaf disks sprayed. As to conditions: 0.025% Tween20, approx. 12 dpi. The test is classed as in vivo. The procedure:
Method: Compounds to be tested are prepared as DMSO solutions which are diluted to the appropriate concentration with 0.025% Tween20 just before spraying. Soybean leaf disks are placed on agar in multiwell plates (24-well format) and sprayed with test solutions. After drying, the leaf disks are inoculated with a spore suspension of the fungus. After appropriate incubation the activity of a compound is assessed approx. 12 dpi (days after inoculation) as preventive fungicidal activity. The data are presented as the percentage of disease control of each compound for the biological tests and testing rates described below in Table J.

The next test relates to Pyricularia oryzae. In words: whole plant or invertebrate. In kind it is in vivo. As to conditions: foliar, 120 h, read-out: control of Pyricularia oryzae.
In test [6] the test system is Puccinia recondita f. sp. tritici. As to the kind of experiment: Puccinia recondita (brown rust), preventative, wheat leaf segments. The test is classed as in vivo. As to conditions: foliar, 192 h, 8 dpi, compared to untreated control. As for the experimental part:
Wheat leaf segments are placed on agar in multiwell plates (24-well format) and sprayed with test solutions. After drying, the leaf segments are inoculated with a spore suspension of the fungus. After appropriate incubation the activity of a compound is assessed 8 dpi (days after inoculation) as preventative fungicidal activity.

For the compound `CO/C=C(\Oc1cc(C2CCCCC2)ccc1C)C(=O)OC` [E.15, methyl (Z)-2-(5-cyclohexyl-2-methyl-phenoxy)-3-methoxy-prop-2-enoate], the inhibition of growth at 20 ppm with Glomerella lagenarium, in the test with Mycosphaerella arachidis and with Monographella nivalis was no less than 80% each time. The pest or weed control at 200 ppm (with Plasmopara viticola; in the test on Phytophthora infestans; in the test with Alternaria solani; in [1]; in [2]; in the test with Pyricularia oryzae) was no less than 80% throughout. Further, the pest or weed control at 200 ppm in test [6] was no less than 80%. For the same compound, the “control (%) Phakopsora pachyrhizi (Soybean rust)” value in the test on Phakopsora pachyrhizi [3] (6 ppm) came to 0%; in the test on Phakopsora pachyrhizi [3] (20 ppm) it was 51%; with Phakopsora pachyrhizi [3] (60 ppm), 97%; with Phakopsora pachyrhizi [3] (200 ppm), 99%; with Phakopsora pachyrhizi [5] (0.6 ppm), 10%; with Phakopsora pachyrhizi [5] (2 ppm), 70%. Moreover, the “control (%) Phakopsora pachyrhizi (Soybean rust)” value with Phakopsora pachyrhizi [5] (6 ppm) was 95%; with Phakopsora pachyrhizi [5] (20 ppm), 100%; in the test on Phakopsora pachyrhizi [5] (60 ppm), 100%; with Phakopsora pachyrhizi [5] (200 ppm), 100%. Further, the “control (%) Puccinia recondita (Brown rust), curative” value worked out at 90% in the test on Puccinia recondita (20 ppm), 100% in the test on Puccinia recondita (60 ppm) and 100% in the test with Puccinia recondita (200 ppm). Besides, the pest or weed control at 60 ppm in the test on Phakopsora pachyrhizi [4] is no less than 70%.
